US11926600B2, “Sulfonylureas and sulfonylthioureas as NLRP3 inhibitors” (Inflazome Limited, priority 2017, dated 2024)

Columns and labels:
NLRP3 [1] = molecular target: T1, NLRP3 (Homo sapiens, UniProt Q96P20); experiment: THP-1 cells pyroptosis assay; type: cell-based; parameters: Seed THP-1 cells (25,000 cells/well) containing 1.0 μg/ml LPS; host or cells: THP-1 cells, LPS-primed, nigericin-stimulated; details: LPS 1 μg/ml, nigericin 5 μM, resazurin readout
Procedure: THP-1 Cells: Culture and Preparation
The cells were routinely passaged and grown to confluency (˜10^6 cells/ml). On the day of the experiment, THP-1 cells were harvested and resuspended into RPMI medium (without FBS). The cells were then counted and viability (>90%) checked by Trypan blue (Sigma #T8154). […] To this diluted cell solution was added LPS (Sigma #L4524) to give a 1 μg/ml Final Assay Concentration (FAC). 40 μl of the final preparation was aliquoted into each well of a 96-well plate. The plate thus prepared was used for compound screening.
THP-1 Cells Pyroptosis Assay
The following method step-by-step assay was followed for compound screening. • 1. […] Incubate for 3 hrs at 37° C. in 5% CO2 • 4. Add 5 μl nigericin (Sigma #N7143) (FAC 5 μM) to all wells • 5. Incubate for 1 hr at 37° C. and 5% CO2 • 6. At the end of the incubation period, spin plates at 300×g for 3 mins and remove supernatant • 7. Then add 50 μl of resazurin (Sigma #R7017) (FAC 100 μM resazurin in RPMI medium without FBS) and incubate plates for a further 1-2 hrs at 37° C. and 5% CO2 • 8. […] IC50 data is fitted to a non-linear regression equation (log inhibitor vs response-variable slope 4-parameters)

NLRP3 [2] = molecular target: T1, NLRP3; experiment: Human whole blood IL1β release assay; type: cell-based; parameters: Plate out 80 μl of whole blood containing 1 μg/ml of LPS; from tissue; host or cells: human whole blood from healthy donors, LPS-primed, nigericin-stimulated; details: LPS 1 μg/ml, nigericin 10 μM, IL-1β AlphaLisa, read-out: HWB IC50
Procedure: Human Whole Blood IL1β Release Assay
For systemic delivery, the ability to inhibit NLRP3 when the compounds are present within the bloodstream is of great importance. For this reason, the NLRP3 inhibitory activity of a number of compounds in human whole blood was investigated in accordance with the following protocol.
Human whole blood in Li-heparin tubes was obtained from healthy donors from a volunteer donor panel. • 1. Plate out 80 μl of whole blood containing 1 μg/ml of LPS in 96-well, clear bottom cell culture plate (Corning #3585) • 2. Add 10 μl compound (8 points half-log dilution with 10 μM top dose) or vehicle (DMSO 0.1% FAC) to the appropriate wells • 3. Incubate for 3 hrs at 37° C. 5% CO2 • 4. Add 10 μl Nigericin (Sigma #N7143) (10 μM FAC) to all wells • 5. Incubate for 1 hr at 37° C. 5% CO2 • 6. At the end of the incubation period, spin plates at 300×g for 5 mins to pellet cells and remove 20 μl of supernatant and add to 96-well v-bottom plates for IL-1β analysis (note: these plates containing the supernatants can be stored at −80° C. to be analysed at a later date) • 7. IL-1β was measured according to the manufacturer protocol (Perkin Elmer-AlphaLisa IL-1 Kit AL220F-5000) • 8. IC50 data is fitted to a non-linear regression equation (log inhibitor vs response-variable slope 4-parameters)

T1 sequence (Q96P20 whole entry): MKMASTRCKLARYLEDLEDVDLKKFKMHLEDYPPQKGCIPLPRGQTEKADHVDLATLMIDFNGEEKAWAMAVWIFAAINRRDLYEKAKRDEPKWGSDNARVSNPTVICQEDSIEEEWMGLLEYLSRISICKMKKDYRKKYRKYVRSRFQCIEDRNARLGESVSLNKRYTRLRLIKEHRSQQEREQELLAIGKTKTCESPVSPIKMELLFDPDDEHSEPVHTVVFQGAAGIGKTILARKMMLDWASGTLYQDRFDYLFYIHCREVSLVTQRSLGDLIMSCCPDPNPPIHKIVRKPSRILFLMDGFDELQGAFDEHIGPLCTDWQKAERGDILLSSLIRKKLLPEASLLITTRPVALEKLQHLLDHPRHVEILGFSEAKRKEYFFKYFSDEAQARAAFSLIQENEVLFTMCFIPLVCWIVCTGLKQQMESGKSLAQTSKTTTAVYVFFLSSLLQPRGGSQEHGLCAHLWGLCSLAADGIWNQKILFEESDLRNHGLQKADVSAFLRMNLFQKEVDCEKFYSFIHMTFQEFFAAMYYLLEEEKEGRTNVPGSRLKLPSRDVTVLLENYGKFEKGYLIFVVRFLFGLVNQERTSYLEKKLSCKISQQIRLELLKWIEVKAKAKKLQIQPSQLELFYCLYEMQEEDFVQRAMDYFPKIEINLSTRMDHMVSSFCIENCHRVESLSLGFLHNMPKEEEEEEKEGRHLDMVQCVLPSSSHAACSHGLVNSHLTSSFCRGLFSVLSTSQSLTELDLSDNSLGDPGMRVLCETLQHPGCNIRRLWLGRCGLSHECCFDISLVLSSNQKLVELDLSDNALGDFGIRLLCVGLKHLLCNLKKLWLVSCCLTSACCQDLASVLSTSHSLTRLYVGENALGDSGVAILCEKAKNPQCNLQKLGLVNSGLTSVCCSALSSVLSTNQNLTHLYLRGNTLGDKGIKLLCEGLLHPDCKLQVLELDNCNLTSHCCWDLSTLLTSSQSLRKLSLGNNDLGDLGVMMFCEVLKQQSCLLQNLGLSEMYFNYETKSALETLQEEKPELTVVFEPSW

SMILES | IC50 (NLRP3 [1]) | IC50 (NLRP3 [2])
CN(C)Cc1c(S(=O)(=O)NC(=O)Nc2c3c(cc4c2CCC4)CCC3)ncn1C [Example 19] | 160 to 640 nM | 800 to 1600 nM
CC(C)n1cnc(S(=O)(=O)NC(=O)Nc2c3c(cc4c2CCC4)CCC3)c1 [Example 15, N-((1,2,3,5,6,7-Hexahydro-s-indacen-4-yl)carbamoyl)-1-isopropyl-1H-imidazole-4-sulfonamide] | 160 to 640 nM | 1600 to 3200 nM
CC(C)c1nc(S(=O)(=O)NC(=O)Nc2c3c(cc4c2CCC4)CCC3)cn1C [Example 13, N-((1,2,3,5,6,7-Hexahydro-s-indacen-4-yl)carbamoyl)-2-isopropyl-1-methyl-1H-imidazole-4-sulfonamide] | 640 to 2560 nM | 3200 to 10000 nM
CCn1cc(S(=O)(=O)NC(=O)Nc2c3c(cc4c2CCC4)CCC3)nc1C [Example 6, 1-Ethyl-N-((1,2,3,5,6,7-hexahydro-s-indacen-4-yl)carbamoyl)-2-methyl-1H-imidazole-4-sulfonamide] | 160 to 640 nM | 3200 to 10000 nM
Cc1nc(S(=O)(=O)NC(=O)Nc2c3c(cc4c2CCC4)CCC3)cn1CCO [Example 17, N-((1,2,3,5,6,7-Hexahydro-s-indacen-4-yl)carbamoyl)-1-(2-hydroxyethyl)-2-methyl-1H-imidazole-4-sulfonamide] | 640 to 2560 nM | 800 to 1600 nM
CC(C)c1ncc(S(=O)(=O)NC(=O)Nc2c3c(cc4c2CCC4)CCC3)n1C [Example 8, N-((1,2,3,5,6,7-Hexahydro-s-indacen-4-yl)carbamoyl)-2-isopropyl-1-methyl-1H-imidazole-5-sulfonamide] | 160 to 640 nM | 
Cn1cnc(S(=O)(=O)NC(=O)Nc2c3c(cc4c2CCC4)CCC3)c1 [Example 12, N-((1,2,3,5,6,7-Hexahydro-s-indacen-4-yl)carbamoyl)-1-methyl-1H-imidazole-4-sulfonamide] | 640 to 2560 nM | 
CN(C)CCn1cnc(S(=O)(=O)NC(=O)Nc2c3c(cc4c2CCC4)CCC3)c1 [Example 3, 1-(2-(Dimethylamino)ethyl)-N-((1,2,3,5,6,7-hexahydro-s-indacen-4-yl)carbamoyl)-1H-imidazole-4-sulfonamide] | 640 to 2560 nM | 1600 to 3200 nM
CC(C)n1cnc(S(=O)(=O)NC(=O)Nc2c(-c3ccnc(C#N)c3)ccc3c2CCC3)c1 [Example 20] | < 40 nM | < 400 nM
C[C@@H](O)Cn1cnc(S(=O)(=O)NC(=O)Nc2c3c(cc4c2CCC4)CCC3)c1 [Example 1, (R)—N-((1,2,3,5,6,7-Hexahydro-s-indacen-4-yl)carbamoyl)-1-(2-hydroxypropyl)-1H-imidazole-4-sulfonamide] | 160 to 640 nM | 800 to 1600 nM
Cn1ccnc1S(=O)(=O)NC(=O)Nc1c2c(cc3c1CCC3)CCC2 [Example 9, N-((1,2,3,5,6,7-Hexahydro-s-indacen-4-yl)carbamoyl)-1-methyl-1H-imidazole-2-sulfonamide] | 2560 to 10000 nM | 
COc1cc(-c2ccc3c(c2NC(=O)NS(=O)(=O)c2cn(C(C)C)cn2)CCC3)ccn1 [Example 21] | 40 to 160 nM | 400 to 800 nM
Cc1nc(S(=O)(=O)NC(=O)Nc2c3c(cc4c2CCC4)CCC3)cn1C(C)C [Example 7, N-((1,2,3,5,6,7-Hexahydro-s-indacen-4-yl)carbamoyl)-1-isopropyl-2-methyl-1H-imidazole-4-sulfonamide] | 160 to 640 nM | 1600 to 3200 nM
CC(C)c1cc(F)cc(-c2cnn(C)c2)c1NC(=O)NS(=O)(=O)c1cn(C(C)C)cn1 [Example 10, N-((4-Fluoro-2-isopropyl-6-(i-methyl-1H-pyrazol-4-yl)phenyl)carbamoyl)-1-isopropyl-1H-imidazole-4-sulfonamide] | 2560 to 10000 nM | 
COc1cc(-c2cc(F)cc(C(C)C)c2NC(=O)NS(=O)(=O)c2cn(C(C)C)cn2)ccn1 [Example 5, N-((4-Fluoro-2-isopropyl-6-(2-methoxypyridin-4-yl)phenyl)carbamoyl)-1-isopropyl-1H-imidazole-4-sulfonamide] | 40 to 160 nM | 800 to 1600 nM
CC(C)c1cccc(C(C)C)c1NC(=O)NS(=O)(=O)c1cn(C(C)C)cn1 [Example 14, N-((2,6-Diisopropylphenyl)carbamoyl)-1-isopropyl-1H-imidazole-4-sulfonamide] | 2560 to 10000 nM | 
Cc1nc(S(=O)(=O)NC(=O)Nc2c3c(cc4c2CCC4)CCC3)cn1CC1CCCO1 (stereo not drawn) [Example 16, N-((1,2,3,5,6,7-Hexahydro-s-indacen-4-yl)carbamoyl)-2-methyl-1-((tetrahydrofuran-2-yl)methyl)-1H-imidazole-4-sulfonamide] | 160 to 640 nM | 800 to 1600 nM
CC(C)c1cc(F)cc(-c2ccnc(C#N)c2)c1NC(=O)NS(=O)(=O)c1cn(C(C)C)cn1 [Example 4, N-((2-(2-Cyanopyridin-4-yl)-4-fluoro-6-isopropylphenyl)carbamoyl)-1-isopropyl-1H-imidazole-4-sulfonamide] | 160 to 640 nM | 400 to 800 nM
C[C@H](O)Cn1cnc(S(=O)(=O)NC(=O)Nc2c3c(cc4c2CCC4)CCC3)c1 [Example 2, (S)—N-((1,2,3,5,6,7-Hexahydro-s-indacen-4-yl)carbamoyl)-1-(2-hydroxypropyl)-1H-imidazole-4-sulfonamide] | 160 to 640 nM | 800 to 1600 nM
